In PubChem BioAssay (NCI):
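48-hour exposure; five concentrations; linearly interpolated endpoints. The concentration for full growth arrest is given as TGI.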

What was measured:
Experiment in all cases: growth of human tumour cells (NCI), 48 h
786-0 renal = test system: 786-0 renal
A498 renal = test system: A498 renal
A549 NSCLC = test system: A549 NSCLC
ACHN renal = test system: ACHN renal
BT-549 breast = test system: BT-549 breast
CAKI-1 renal = test system: CAKI-1 renal
CCRF-CEM leukemia = test system: CCRF-CEM leukemia
COLO 205 colon = test system: COLO 205 colon
DU-145 prostate = test system: DU-145 prostate
EKVX NSCLC = test system: EKVX NSCLC
HCC-2998 colon = test system: HCC-2998 colon
HCT-116 colon = test system: HCT-116 colon
HCT-15 colon = test system: HCT-15 colon
HL-60(TB) leukemia = test system: HL-60(TB) leukemia
HOP-62 NSCLC = test system: HOP-62 NSCLC
HOP-92 NSCLC = test system: HOP-92 NSCLC
HS 578T breast = test system: HS 578T breast
HT29 colon = test system: HT29 colon
IGROV1 ovarian = test system: IGROV1 ovarian
K-562 leukemia = test system: K-562 leukemia
KM12 colon = test system: KM12 colon
LOX IMVI melanoma = test system: LOX IMVI melanoma
M14 melanoma = test system: M14 melanoma
MALME-3M melanoma = test system: MALME-3M melanoma
MCF7 breast = test system: MCF7 breast
MDA-MB-231 breast = test system: MDA-MB-231 breast
MDA-MB-435 = test system: MDA-MB-435
MDA-N = test system: MDA-N
MOLT-4 leukemia = test system: MOLT-4 leukemia
NCI-H226 lung = test system: NCI-H226 lung
NCI-H23 lung = test system: NCI-H23 lung
NCI-H522 lung = test system: NCI-H522 lung
NCI/ADR-RES ovarian = test system: NCI/ADR-RES ovarian
OVCAR-3 ovarian = test system: OVCAR-3 ovarian
OVCAR-4 ovarian = test system: OVCAR-4 ovarian
OVCAR-5 ovarian = test system: OVCAR-5 ovarian
OVCAR-8 ovarian = test system: OVCAR-8 ovarian
PC-3 prostate = test system: PC-3 prostate
RPMI-8226 leukemia = test system: RPMI-8226 leukemia
RXF 393 renal = test system: RXF 393 renal
SF-268 CNS = test system: SF-268 CNS
SF-295 CNS = test system: SF-295 CNS
SF-539 CNS = test system: SF-539 CNS
SK-MEL-2 melanoma = test system: SK-MEL-2 melanoma
SK-MEL-28 melanoma = test system: SK-MEL-28 melanoma
SK-MEL-5 melanoma = test system: SK-MEL-5 melanoma
SK-OV-3 ovarian = test system: SK-OV-3 ovarian
SN12C renal = test system: SN12C renal
SNB-19 CNS = test system: SNB-19 CNS
SNB-75 CNS = test system: SNB-75 CNS
SR leukemia = test system: SR leukemia
SW-620 colon = test system: SW-620 colon
T-47D breast = test system: T-47D breast
TK-10 renal = test system: TK-10 renal
U251 CNS = test system: U251 CNS
UACC-257 melanoma = test system: UACC-257 melanoma
UACC-62 melanoma = test system: UACC-62 melanoma
UO-31 renal = test system: UO-31 renal
DLD-1 colon = test system: DLD-1 colon
DMS 114 small cell lung = test system: DMS 114 small cell lung
DMS 273 small cell lung = test system: DMS 273 small cell lung
KM20L2 colon = test system: KM20L2 colon
LXFL 529 NSCLC = test system: LXFL 529 NSCLC
M19-MEL melanoma = test system: M19-MEL melanoma
NCI-H460 lung = test system: NCI-H460 lung
SNB-78 CNS = test system: SNB-78 CNS
XF 498 CNS = test system: XF 498 CNS
HOP-18 NSCLC = test system: HOP-18 NSCLC

Measured: TGI

CC(C#N)(c1ccccc1)N(CCc1ccccc1)C(=O)Oc1ccccc1 (centres undefined)
81.6 µM: SNB-75 CNS
65 µM: HOP-92 NSCLC
not listed: DLD-1 colon | DMS 114 small cell lung | DMS 273 small cell lung | KM20L2 colon | LXFL 529 NSCLC | M19-MEL melanoma | NCI-H460 lung | SNB-78 CNS | XF 498 CNS | HOP-18 NSCLC
> 100 µM: all other assays above

CCN(CC)CC(=O)NC1c2ccccc2Oc2ccccc21
not listed: A498 renal | ACHN renal | BT-549 breast | CAKI-1 renal | DU-145 prostate | HOP-92 NSCLC | HS 578T breast | KM12 colon | MALME-3M melanoma | MCF7 breast | MDA-MB-231 breast | MDA-MB-435 | MDA-N | NCI-H522 lung | NCI/ADR-RES ovarian | OVCAR-3 ovarian | PC-3 prostate | SF-295 CNS | SK-MEL-2 melanoma | T-47D breast | HOP-18 NSCLC
> 100 µM: all other assays above

O=C1C(Cl)C(c2cccc([N+](=O)[O-])c2)N1n1cnc2ccccc2c1=O (centres undefined)
not listed: A498 renal | BT-549 breast | CCRF-CEM leukemia | DU-145 prostate | HOP-92 NSCLC | HS 578T breast | MCF7 breast | MDA-MB-231 breast | MDA-MB-435 | MDA-N | NCI/ADR-RES ovarian | PC-3 prostate | SF-539 CNS | T-47D breast | SNB-78 CNS | XF 498 CNS
> 100 µM: all other assays above

C=C=C[P+](c1ccccc1)(c1ccccc1)c1ccccc1
16.2 µM: MOLT-4 leukemia
45.7 µM: NCI-H460 lung
40.2 µM: SF-539 CNS
10.3 µM: COLO 205 colon
23.3 µM: SK-MEL-5 melanoma
91.9 µM: M19-MEL melanoma
20.8 µM: LXFL 529 NSCLC
73.8 µM: HCT-15 colon
86 µM: SNB-78 CNS
78.2 µM: TK-10 renal
28.2 µM: KM12 colon
29.9 µM: DMS 114 small cell lung
54.8 µM: DMS 273 small cell lung
14.3 µM: U251 CNS
22.3 µM: CCRF-CEM leukemia
6.37 µM: RPMI-8226 leukemia
17.7 µM: 786-0 renal
17.8 µM: SN12C renal
26.7 µM: MALME-3M melanoma
44.9 µM: SNB-75 CNS
15.5 µM: HCT-116 colon
34.4 µM: OVCAR-3 ovarian
77.7 µM: SK-MEL-28 melanoma
23.4 µM: HL-60(TB) leukemia
9.46 µM: K-562 leukemia
60.8 µM: SR leukemia
19.5 µM: M14 melanoma
39.5 µM: UACC-257 melanoma
> 100 µM: A498 renal | A549 NSCLC | ACHN renal | DLD-1 colon | HCC-2998 colon | HOP-18 NSCLC | HOP-62 NSCLC | IGROV1 ovarian | OVCAR-4 ovarian | OVCAR-8 ovarian | SF-268 CNS | SK-OV-3 ovarian | UO-31 renal
26.5 µM: SK-MEL-2 melanoma
6 µM: NCI-H522 lung

COc1nc(NC2OC(COC(C)=O)C(OC(C)=O)C(OC(C)=O)C2OC(C)=O)c(N=CC=Nc2c(NC3OC(COC(C)=O)C(OC(C)=O)C(OC(C)=O)C3OC(C)=O)nc(OC)[nH]c2=O)c(=O)[nH]1 (centres undefined)
not listed: BT-549 breast | DU-145 prostate | HCT-15 colon | HS 578T breast | MCF7 breast | MDA-MB-231 breast | MDA-MB-435 | MDA-N | NCI/ADR-RES ovarian | PC-3 prostate | RXF 393 renal | SK-MEL-2 melanoma | SR leukemia | T-47D breast | DMS 273 small cell lung | NCI-H460 lung | SNB-78 CNS | XF 498 CNS
> 100 µM: all other assays above

CC(=O)OCC1OC(N2C(=O)[C@@H](Oc3ccccc3)[C@H]2/C=C/c2ccccc2)C(OC(C)=O)C(OC(C)=O)C1OC(C)=O (some centres undefined)
90 µM: SNB-75 CNS
not listed: BT-549 breast | CAKI-1 renal | DU-145 prostate | HS 578T breast | KM12 colon | MCF7 breast | MDA-MB-231 breast | MDA-MB-435 | MDA-N | NCI/ADR-RES ovarian | PC-3 prostate | T-47D breast | HOP-18 NSCLC
> 100 µM: all other assays above

C#CCOC(=O)C(N)CC(N)=O (centres undefined)
> 31.6 µM: HT29 colon
not listed: DLD-1 colon | DMS 114 small cell lung | DMS 273 small cell lung | KM20L2 colon | LXFL 529 NSCLC | M19-MEL melanoma | SNB-78 CNS | XF 498 CNS | HOP-18 NSCLC
> 100 µM: all other assays above
